Columns and labels:
[1] = biological target: T1, Peroxisome proliferator-activated receptor gamma (Homo sapiens, UniProt P37231); format: functional
T1 sequence (P37231 whole entry): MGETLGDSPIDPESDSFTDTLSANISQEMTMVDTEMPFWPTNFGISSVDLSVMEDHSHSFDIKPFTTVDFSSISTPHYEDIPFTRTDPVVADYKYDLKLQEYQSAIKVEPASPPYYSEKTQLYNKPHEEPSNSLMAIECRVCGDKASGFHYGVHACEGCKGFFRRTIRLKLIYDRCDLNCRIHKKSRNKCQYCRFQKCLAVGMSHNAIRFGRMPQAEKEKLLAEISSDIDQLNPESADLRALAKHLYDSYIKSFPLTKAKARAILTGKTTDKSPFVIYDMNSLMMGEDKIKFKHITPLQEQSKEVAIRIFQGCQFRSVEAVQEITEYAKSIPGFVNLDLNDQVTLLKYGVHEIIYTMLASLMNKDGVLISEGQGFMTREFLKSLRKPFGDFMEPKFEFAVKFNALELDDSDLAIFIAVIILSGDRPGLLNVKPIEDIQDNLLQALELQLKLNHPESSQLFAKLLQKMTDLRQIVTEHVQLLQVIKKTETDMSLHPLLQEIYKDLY

[2] = biological target: T2, Muscarinic acetylcholine receptor M1 (Homo sapiens, UniProt P11229); format: functional
T2 sequence (P11229 whole entry): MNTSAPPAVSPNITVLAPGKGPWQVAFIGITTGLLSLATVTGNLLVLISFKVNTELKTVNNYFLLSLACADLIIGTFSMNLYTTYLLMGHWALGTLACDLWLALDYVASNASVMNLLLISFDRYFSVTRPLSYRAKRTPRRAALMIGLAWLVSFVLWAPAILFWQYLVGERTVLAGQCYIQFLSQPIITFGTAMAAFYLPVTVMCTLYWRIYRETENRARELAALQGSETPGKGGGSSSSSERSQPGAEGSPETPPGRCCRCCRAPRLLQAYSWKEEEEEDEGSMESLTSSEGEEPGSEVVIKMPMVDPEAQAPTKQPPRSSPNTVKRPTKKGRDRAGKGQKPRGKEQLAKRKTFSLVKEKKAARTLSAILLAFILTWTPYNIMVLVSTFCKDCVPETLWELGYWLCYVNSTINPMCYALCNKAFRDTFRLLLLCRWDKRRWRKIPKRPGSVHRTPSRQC

[3] = biological target: T3, Gamma-aminobutyric acid receptor subunit alpha-1/alpha-2/beta-2/gamma-2 (Homo sapiens, UniProt P14867+P18507+P47869+P47870); format: functional, cell-based
Histamine H1 receptor = Histamine H1 receptor (Homo sapiens, UniProt P35367)
[4] = biological target: Muscarinic acetylcholine receptor M3 (Homo sapiens, UniProt P20309)
Glucagon receptor = Glucagon receptor (Homo sapiens, UniProt P47871)
[5] = biological target: T4, Alpha-1A adrenergic receptor (Homo sapiens, UniProt P35348)
T4 sequence (P35348 whole entry): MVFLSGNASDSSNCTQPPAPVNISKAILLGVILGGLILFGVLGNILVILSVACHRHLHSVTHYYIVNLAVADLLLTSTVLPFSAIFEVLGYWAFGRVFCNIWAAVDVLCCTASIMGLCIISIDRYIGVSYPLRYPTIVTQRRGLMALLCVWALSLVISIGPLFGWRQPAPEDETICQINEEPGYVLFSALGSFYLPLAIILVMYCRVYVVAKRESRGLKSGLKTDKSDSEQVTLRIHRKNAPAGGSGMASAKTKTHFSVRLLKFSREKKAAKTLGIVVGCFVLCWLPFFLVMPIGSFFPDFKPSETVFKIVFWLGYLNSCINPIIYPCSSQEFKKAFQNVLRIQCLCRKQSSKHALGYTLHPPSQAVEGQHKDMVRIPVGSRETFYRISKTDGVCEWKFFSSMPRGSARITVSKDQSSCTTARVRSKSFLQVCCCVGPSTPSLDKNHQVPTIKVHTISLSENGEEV

[6] = biological target: T5, Gastric inhibitory polypeptide receptor (Homo sapiens, UniProt P48546)
T5 sequence (P48546 whole entry): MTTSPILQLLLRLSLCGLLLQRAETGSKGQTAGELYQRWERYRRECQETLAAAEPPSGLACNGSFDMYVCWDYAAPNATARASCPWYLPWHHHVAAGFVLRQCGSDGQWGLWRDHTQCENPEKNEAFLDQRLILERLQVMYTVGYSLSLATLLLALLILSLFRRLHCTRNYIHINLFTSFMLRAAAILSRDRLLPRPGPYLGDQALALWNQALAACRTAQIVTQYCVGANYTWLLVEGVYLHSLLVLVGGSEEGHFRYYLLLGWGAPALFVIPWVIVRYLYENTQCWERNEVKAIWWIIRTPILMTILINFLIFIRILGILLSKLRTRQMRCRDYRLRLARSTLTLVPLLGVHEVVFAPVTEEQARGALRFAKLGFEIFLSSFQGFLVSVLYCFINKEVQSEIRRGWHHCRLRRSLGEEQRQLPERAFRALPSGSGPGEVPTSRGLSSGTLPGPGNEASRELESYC

[7] = biological target: Voltage-dependent N-type calcium channel subunit alpha-1B (Rattus norvegicus, UniProt Q02294); format: functional
[8] = biological target: T6, Endothelin receptor type B (Homo sapiens, UniProt P24530)
T6 sequence (P24530 whole entry): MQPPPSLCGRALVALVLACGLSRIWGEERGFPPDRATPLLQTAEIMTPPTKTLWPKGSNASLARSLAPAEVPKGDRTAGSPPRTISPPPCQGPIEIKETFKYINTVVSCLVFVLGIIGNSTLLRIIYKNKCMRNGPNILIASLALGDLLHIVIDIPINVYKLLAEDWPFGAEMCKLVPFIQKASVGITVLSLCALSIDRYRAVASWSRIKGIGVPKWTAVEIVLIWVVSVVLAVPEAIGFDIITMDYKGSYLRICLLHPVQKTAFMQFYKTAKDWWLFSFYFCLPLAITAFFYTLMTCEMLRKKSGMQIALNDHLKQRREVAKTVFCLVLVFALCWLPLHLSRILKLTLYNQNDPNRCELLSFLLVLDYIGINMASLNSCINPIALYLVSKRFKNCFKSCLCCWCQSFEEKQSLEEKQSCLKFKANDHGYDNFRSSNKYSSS

[9] = biological target: T3, Gamma-aminobutyric acid receptor subunit alpha-1/alpha-2/beta-2/gamma-2; format: protein-complex assay
Also: assay procedure not described here.

Glucagon receptor, sequence (P47871 whole entry): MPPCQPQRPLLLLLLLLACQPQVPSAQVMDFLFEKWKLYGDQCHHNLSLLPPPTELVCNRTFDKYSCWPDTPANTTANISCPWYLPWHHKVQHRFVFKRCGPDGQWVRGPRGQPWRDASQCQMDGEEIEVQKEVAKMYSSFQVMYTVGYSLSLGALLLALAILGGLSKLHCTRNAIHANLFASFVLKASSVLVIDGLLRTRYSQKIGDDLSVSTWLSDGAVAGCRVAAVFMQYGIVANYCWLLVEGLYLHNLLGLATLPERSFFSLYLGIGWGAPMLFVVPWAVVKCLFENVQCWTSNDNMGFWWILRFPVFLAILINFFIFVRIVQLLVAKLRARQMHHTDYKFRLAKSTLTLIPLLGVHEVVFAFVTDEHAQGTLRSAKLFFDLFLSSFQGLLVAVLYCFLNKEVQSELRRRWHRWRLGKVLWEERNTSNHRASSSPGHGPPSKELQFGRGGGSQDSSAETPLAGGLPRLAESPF
Histamine H1 receptor, sequence (P35367 whole entry): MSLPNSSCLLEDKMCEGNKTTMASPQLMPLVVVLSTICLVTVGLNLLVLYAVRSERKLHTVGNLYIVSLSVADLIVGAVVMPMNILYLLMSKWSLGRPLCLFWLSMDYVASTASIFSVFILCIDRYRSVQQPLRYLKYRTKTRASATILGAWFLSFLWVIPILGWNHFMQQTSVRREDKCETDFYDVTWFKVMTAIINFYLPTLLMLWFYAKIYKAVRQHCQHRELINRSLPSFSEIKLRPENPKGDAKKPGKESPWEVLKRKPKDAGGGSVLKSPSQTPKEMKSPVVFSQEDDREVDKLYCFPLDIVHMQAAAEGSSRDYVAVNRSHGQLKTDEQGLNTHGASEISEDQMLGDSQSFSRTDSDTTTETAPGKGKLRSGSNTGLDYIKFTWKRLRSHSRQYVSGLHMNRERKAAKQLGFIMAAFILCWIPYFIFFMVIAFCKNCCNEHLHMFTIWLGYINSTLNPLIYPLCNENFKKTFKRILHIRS
Voltage-dependent N-type calcium channel subunit alpha-1B, sequence (Q02294 whole entry): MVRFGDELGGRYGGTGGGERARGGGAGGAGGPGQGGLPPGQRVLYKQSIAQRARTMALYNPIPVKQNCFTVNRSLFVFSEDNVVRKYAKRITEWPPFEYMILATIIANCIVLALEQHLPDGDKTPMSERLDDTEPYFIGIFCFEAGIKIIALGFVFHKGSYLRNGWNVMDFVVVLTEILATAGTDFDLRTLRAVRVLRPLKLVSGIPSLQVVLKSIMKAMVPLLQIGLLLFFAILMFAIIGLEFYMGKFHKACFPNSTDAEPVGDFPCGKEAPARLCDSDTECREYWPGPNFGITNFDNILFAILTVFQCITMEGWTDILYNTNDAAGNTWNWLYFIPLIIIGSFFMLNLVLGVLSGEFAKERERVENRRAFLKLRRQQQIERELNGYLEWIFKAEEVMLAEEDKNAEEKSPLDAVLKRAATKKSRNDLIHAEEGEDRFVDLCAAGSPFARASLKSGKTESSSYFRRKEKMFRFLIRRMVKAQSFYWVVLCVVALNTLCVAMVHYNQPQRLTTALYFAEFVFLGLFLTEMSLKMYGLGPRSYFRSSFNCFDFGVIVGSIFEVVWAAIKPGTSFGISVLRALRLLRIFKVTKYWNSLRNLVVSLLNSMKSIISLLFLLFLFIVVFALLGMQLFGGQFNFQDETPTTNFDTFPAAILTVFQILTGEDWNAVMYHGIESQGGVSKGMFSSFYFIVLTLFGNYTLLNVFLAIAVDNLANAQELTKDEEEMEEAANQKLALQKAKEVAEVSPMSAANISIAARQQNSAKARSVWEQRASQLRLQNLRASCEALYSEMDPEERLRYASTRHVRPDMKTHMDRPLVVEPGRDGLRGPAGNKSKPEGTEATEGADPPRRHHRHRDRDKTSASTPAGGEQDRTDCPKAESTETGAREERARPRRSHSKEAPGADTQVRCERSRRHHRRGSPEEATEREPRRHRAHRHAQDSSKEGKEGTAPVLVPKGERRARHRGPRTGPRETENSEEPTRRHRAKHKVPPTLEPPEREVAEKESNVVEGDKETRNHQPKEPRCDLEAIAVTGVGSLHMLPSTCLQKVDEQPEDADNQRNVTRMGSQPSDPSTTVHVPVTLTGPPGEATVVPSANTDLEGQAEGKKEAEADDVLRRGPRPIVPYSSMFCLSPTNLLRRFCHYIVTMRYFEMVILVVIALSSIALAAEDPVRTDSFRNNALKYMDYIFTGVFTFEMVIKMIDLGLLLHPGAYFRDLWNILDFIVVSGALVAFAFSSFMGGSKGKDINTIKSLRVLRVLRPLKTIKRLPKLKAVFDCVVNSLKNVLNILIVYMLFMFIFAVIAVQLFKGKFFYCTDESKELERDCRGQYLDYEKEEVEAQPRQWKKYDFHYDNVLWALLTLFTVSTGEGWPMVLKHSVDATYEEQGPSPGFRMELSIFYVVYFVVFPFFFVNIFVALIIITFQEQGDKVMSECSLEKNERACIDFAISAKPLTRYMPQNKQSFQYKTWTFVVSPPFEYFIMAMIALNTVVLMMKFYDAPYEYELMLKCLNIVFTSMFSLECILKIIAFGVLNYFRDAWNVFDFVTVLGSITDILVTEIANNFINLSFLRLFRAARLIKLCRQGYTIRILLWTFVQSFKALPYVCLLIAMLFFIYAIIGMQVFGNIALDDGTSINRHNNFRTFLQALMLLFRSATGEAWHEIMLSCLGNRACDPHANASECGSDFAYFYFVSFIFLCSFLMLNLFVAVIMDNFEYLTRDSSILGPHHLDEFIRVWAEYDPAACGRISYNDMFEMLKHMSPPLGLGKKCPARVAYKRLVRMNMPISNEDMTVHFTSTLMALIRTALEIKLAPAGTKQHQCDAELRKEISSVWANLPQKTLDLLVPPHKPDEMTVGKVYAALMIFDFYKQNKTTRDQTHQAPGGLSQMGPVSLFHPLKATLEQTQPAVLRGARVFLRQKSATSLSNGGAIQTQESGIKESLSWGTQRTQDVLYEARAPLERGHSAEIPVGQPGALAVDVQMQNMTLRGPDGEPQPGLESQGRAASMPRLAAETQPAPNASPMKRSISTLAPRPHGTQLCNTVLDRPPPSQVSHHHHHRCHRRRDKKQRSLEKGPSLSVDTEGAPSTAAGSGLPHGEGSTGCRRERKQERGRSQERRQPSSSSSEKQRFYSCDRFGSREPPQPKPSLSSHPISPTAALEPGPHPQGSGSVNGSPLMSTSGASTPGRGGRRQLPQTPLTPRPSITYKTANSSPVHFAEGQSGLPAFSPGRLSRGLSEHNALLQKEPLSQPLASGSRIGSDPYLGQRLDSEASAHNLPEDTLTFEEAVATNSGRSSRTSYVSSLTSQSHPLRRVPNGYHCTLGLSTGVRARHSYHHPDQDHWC
Muscarinic acetylcholine receptor M3, sequence (P20309 whole entry): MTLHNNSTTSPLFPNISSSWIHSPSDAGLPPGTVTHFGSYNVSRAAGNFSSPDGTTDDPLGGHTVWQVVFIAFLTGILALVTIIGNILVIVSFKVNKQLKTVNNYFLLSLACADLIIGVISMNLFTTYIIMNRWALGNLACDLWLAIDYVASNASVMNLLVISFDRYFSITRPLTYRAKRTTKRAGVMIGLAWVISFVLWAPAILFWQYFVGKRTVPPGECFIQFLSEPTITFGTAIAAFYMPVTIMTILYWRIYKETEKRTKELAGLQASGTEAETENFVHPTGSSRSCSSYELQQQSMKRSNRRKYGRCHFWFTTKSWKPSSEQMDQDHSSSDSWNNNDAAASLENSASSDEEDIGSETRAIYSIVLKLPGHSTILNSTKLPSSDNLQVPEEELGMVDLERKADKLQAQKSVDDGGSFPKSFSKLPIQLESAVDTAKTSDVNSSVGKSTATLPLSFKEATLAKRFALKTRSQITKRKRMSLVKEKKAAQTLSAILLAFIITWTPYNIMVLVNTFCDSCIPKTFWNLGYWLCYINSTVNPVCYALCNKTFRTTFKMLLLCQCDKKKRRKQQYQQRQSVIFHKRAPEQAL

SMILES | AC50 [1] [µM] | AC50 [2] [µM] | AC50 [3] [µM] | AC50 (Histamine H1 receptor) [µM] | AC50 [4] [µM] | AC50 (Glucagon receptor) [µM] | AC50 [5] [µM] | AC50 [6] [µM] | AC50 [7] [µM] | AC50 [8] [µM] | AC50 [9] [µM]
C[C@H](CCC(=O)O)[C@H]1CC[C@H]2[C@@H]3[C@@H](O)C[C@@H]4C[C@H](O)CC[C@]4(C)[C@H]3CC[C@]12C [URSODIOL] | > 30 | > 30 | > 30 | > 30 | > 30 |  |  |  |  |  | 
COc1ccccc1OCCNCC(O)COc1cccc2[nH]c3ccccc3c12 (stereo unspecified) [CARVEDILOL] | 28 |  |  |  |  | > 30 | 0.0194 | > 30 | > 10 | > 30 | 
CCCN(CCC)C(=O)Cc1c(-c2ccc(Cl)cc2)nc2ccc(Cl)cn12 [ALPIDEM] |  | > 30 | > 10 | > 30 | > 30 | > 10 | > 30 |  | > 10 | > 10 | 
C=CC[C@@H]1/C=C(\C)C[C@H](C)C[C@H](OC)[C@H]2O[C@@](O)(C(=O)C(=O)N3CCCC[C@H]3C(=O)O[C@H](/C(C)=C/[C@@H]3CC[C@@H](O)[C@H](OC)C3)[C@H](C)[C@@H](O)CC1=O)[C@H](C)C[C@@H]2OC [TACROLIMUS ANHYDROUS] | > 30 |  | > 30 |  |  | > 30 | > 10 | > 30 | > 10 | > 30 | 
Cc1onc(-c2ccccc2)c1-c1ccc(S(N)(=O)=O)cc1 [VALDECOXIB] | > 30 |  |  |  |  | > 30 | > 10 | > 30 | > 10 | > 30 | > 30
C#C[C@]1(O)CC[C@H]2[C@@H]3CCC4=CC(=O)CC[C@@H]4[C@H]3C(=C)C[C@@]21CC [ETONOGESTREL] |  | > 30 | > 30 | > 30 | > 30 |  |  |  |  |  | 
CN1C[C@H](C(=O)N[C@]2(C)O[C@@]3(O)[C@@H]4CCCN4C(=O)[C@H](Cc4ccccc4)N3C2=O)C=C2c3cccc4[nH]cc(c34)C[C@H]21 [ERGOTAMINE] | > 30 |  |  |  |  |  |  |  |  |  | 
CC(C)c1nc(N(C)S(C)(=O)=O)nc(-c2ccc(F)cc2)c1/C=C/[C@@H](O)C[C@@H](O)CC(=O)O [ROSUVASTATIN] | > 30 | > 30 | > 30 | > 30 | > 30 |  |  |  |  |  | 
COc1cc2nccc(Oc3ccc(NC(=O)C4(C(=O)Nc5ccc(F)cc5)CC4)cc3)c2cc1OC [CABOZANTINIB] | > 30 | > 30 | > 30 | > 30 | > 30 |  |  |  |  |  | > 30
OC[C@H]1O[C@@](CO)(O[C@H]2O[C@H](CO)[C@@H](O)[C@H](O)[C@H]2O)[C@@H](O)[C@@H]1O [SUCROSE] | > 30 | > 30 | > 30 | > 30 | > 30 |  |  |  |  |  | 
C[C@@H](Oc1cc(-c2cnn(C3CCNCC3)c2)cnc1N)c1c(Cl)ccc(F)c1Cl [CRIZOTINIB] | > 30 | > 30 | 17 | > 30 | > 30 | > 30 |  |  |  |  | 
CC(S)C(=O)NCC(=O)O (stereo unspecified) [TIOPRONIN] | > 30 | > 30 | > 30 | > 30 | > 30 |  |  |  |  |  | 
CCN1CCN(Cc2ccc(Nc3ncc(F)c(-c4cc(F)c5nc(C)n(C(C)C)c5c4)n3)nc2)CC1 [ABEMACICLIB] | > 30 | > 30 | > 30 | 23 | > 30 |  |  |  |  |  | 
N[C@@H](CC(=O)N1CCn2c(nnc2C(F)(F)F)C1)Cc1cc(F)c(F)cc1F [SITAGLIPTIN] | > 30 | > 30 | > 30 | > 30 | > 30 |  |  |  | > 10 | > 10 | 
CN(C)CCc1c[nH]c2ccc(Cn3cncn3)cc12 [RIZATRIPTAN] |  | > 30 | > 30 | 5.79 | > 30 | > 30 | > 10 | > 30 | > 10 | > 30 | 
